Earlier results in patent publication US11737471B2, “Products having high efficacy omega-6/omega-3 balanced polyunsaturated fatty acids” (OMEGA FOODS, LLC, priority 2011, dated 2023).

Conditions: by some estimates

CC/C=C\C/C=C\C/C=C\CCCCCCCC(=O)O [ALA, alpha-linolenic acid]
conversion of ALA to DHA and EPA by the human body: less than 1%
